Results taken from US7005447B2, “Food product comprising hydroxymatairesinol” (Hormos Nutraceutical Oy Ltd., priority 1999, dated 2006).
Read-outs that look alike come from different tables or passages of the source.

What was measured:
[1] = tested on: tert-butylhydroperoxide-induced lipid peroxidation (t-BuOOH-LP) in rat liver microsomes; experiment: Inhibition of tert-butylhydroperoxide-induced lipid peroxidation (t-BuOOH-LP), chemiluminescence; type: biochemical
Method: Inhibition of lipid peroxidation was evaluated on the basis of their potency to inhibit tert-butylhydroperoxide-induced lipid peroxidation (t-BuOOH-LP) in rat liver microsomes in vitro (Ahotupa et al. 1997). The test for the t-BuOOH-LP was carried out as follows: The buffer (50 mM sodium carbonate, pH 10.2, with 0.1 mM EDTA) was pipetted in a volume of 0.8 ml in the luminometer cuvette. Twenty microliters of diluted liver microsomes, final concentration 1.5 mg protein/ml, was added, followed by […] of luminol (0.5 mg/ml) and test chemicals. The test compounds were added to incubation mixtures in a small volume diluted in ethanol or dimethylsulphoxide (2% of incubation volume), and the lipid peroxidation potency was compared to that of the vehicle (ethanol or dimethyl sulphoxide). The reaction was initiated by 0.05 ml of 0.9 mM t-BuOOH at 33° C. Chemiluminescence was measured for about 45 min at 1 min cycles, and the area under curve (integral) was calculated. Chemiluminescence measurements were carried out using a Bio-Orbit 1251 Luminometer (Bio-Orbit, Turku, Finland) connected to a personal computer using dedicated software for the assays.

aromatase = target: T1, aromatase (Homo sapiens, UniProt P11511); experiment: Aromatase inhibiting capacity in JEG-3 cells (3H-17β-estradiol formation from 3H-androstenedione); type: cell-based; conditions: 4 h incubation, FIG. 1
T1 construct: 800 μl cell suspension (1 million cells); endogenous in cells; host or cells: JEG-3 human choriocarcinoma cells
T1 sequence (P11511 1-503): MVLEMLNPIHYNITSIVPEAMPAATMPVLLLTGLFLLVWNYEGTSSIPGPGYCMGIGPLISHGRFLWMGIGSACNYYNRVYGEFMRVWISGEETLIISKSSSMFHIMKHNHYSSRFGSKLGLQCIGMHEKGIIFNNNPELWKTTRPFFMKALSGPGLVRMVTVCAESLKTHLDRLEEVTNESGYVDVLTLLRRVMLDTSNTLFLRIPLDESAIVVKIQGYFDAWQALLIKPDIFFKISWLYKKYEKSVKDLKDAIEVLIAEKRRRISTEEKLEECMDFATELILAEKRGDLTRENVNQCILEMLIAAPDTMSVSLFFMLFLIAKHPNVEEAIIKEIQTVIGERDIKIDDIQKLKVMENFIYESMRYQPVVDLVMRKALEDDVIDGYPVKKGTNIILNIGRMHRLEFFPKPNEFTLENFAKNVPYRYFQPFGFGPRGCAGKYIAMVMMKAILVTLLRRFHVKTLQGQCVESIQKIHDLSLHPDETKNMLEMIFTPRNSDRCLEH
Method: The effects of HMR and structurally related lignans (enterolactone, enterodiol and 7-hydroxyenterolactone) were studied on formation of ^3H-17β-estradiol from ^3H-andostenedione in JEG-3 cells, human choriocarcinoma cell line. […] Cells were maintained in DMEM containing 10% fetal calf serum (FCS). The incubation mixture contained 50 μl ^3H-androst-4-ene, 3,17-dione (0.5 nM), 50 μl unlabelled androstenedione (0.5 nM), 100 μl test compounds (10 mM) and 800 μl cell suspension (1 million cells). After the incubation for 4 h, unlabelled carriers (androstenedione, testosterone, 17β-estradiol and estrone) were added. The steroids were extracted twice with 3.0 ml dichloromethane. […] The column system consisted of a guard column followed by a C18 150×3.9 mm ID analytical column (Technopak 10 C18 HPLC Technology; Wellington House, Cheshire, UK). The mobile phase was acetonitrile/water (35/65) and the flow rate was 1.2 ml/min. For in-line detection of the radioactive metabolites, the eluent of the HPCL column was continuously mixed with liquid scintillant and then monitored with in-line radioactivity detector.

[2] = tested on: intact and hypoandrogenic Noble strain male rats; experiment: Estrogenic and antiestrogenic activity in adult male rats (intact and hypoandrogenic); type: in vivo, rat; conditions: for Body weight / Coaculating gland relative weight / Seminal vesicle relative weight / Testis relative weight / Ventral Prostate relative weight: HMR 50 mg/kg daily; for Body weight / Coaculating gland relative weight / Seminal vesicle relative weight / Testis relative weight / Ventral Prostate relative weight / Pituitary LH (μg/pit) / Serum LH / Serum testosterone / Testis testosterone (ng/testis): four weeks, mean ± SD; for Pituitary LH (μg/pit) / Serum LH / Serum testosterone / Testis testosterone (ng/testis): 50 mg/kg HMR
Method: Estrogenic (antiandrogenic) and antiestrogenic effects of HMR were studied in intact and hypoandrogenic Noble strain male rats (age 6–9 month), correspondingly. The chronic hypoandrogenic state with both structural and functional changes in the male reproductive tract was induced by neonatal estrogenization (diethylstilbestrol, 10.0 μg/kg body weight in rape oil s.c. on postnatal days 1–5). These changes are known to be partly reversible by aromatase inhibitor treatment consisting daily dose of MPV-2213 ad 10–30 mg/kg body weight (Streng et al. unpublished observations).
Twelve of both intact and hypoandrogenic animals were cavaged in daily dosage of HMR 50 mg/kg body weight in rape oil. Another twelve animals from both animal models were cavaged with rape oil only as a placebo treatment. After four-week treatment the animals were sacrificed. The weights of testis and accessory sex glands (ventral prostate, seminal vesicles and coagulating gland) were measured. Serum and testis testosterone and pituitary and serum luteinizing hormone (LH) levels were measured by immunoassays (Haavisto et al. 1993).

[3] = tested on: DMBA-induced mammary gland tumors; experiment: Antitumor activity in rat DMBA-induced mammary cancer model; type: in vivo
Method: Antitumor activity of HMR in rat mammary cancer was studied as described earlier ([…] et al. 1986). Fifty-day-old female Sprague-Dawley rats were given 12.0 mg DMBA (dimethylbentz[a]anthracene) by […]. After approximately 6 weeks palpable tumors could be detected, whereafter the width (w) and the length (1) of the tumors were measured once a week to determine the tumor volumes according to a formula V=(πw^2 l)/12. The rats were also weighed once a week. The rats were allocated in 3 different groups so that the total number of tumors in the beginning of the experiment was similar in each group: (1) Control group 8 animals, (2) HMR 3.0 mg/kg 7 animals, and (3) HMR 15.0 mg/kg 7 animals, one of which had to be killed before the end of the experiment. HMR was given per os starting 9 weeks after the DMBA-induction, i.e. 3 weeks after palpable tumors appeared, and was given daily for 7.5 weeks. At the end of the experiment the tumors were classified in groups according to their growth pattern: 1. Growing tumors (PD=progressive disease); 2. Non-growing, stabilized tumors (SD=stabilized disease, no change in tumor volume or regression less than 75%; 3. Regressing tumors (PR=partial response, regression of tumor volume more than 75%); 4. Disappeared tumors (CR=complete response, no palpable tumor).

[4] = control and hypoandrogenic animals, 4-week treatment, versus placebo

- IC50 ([1]; Table 3 comparison with known antioxidants, read-out: Inhibition of lipid peroxidation, IC-50): 60 nM
- IC50 ([1]; lipid peroxidation inhibition test, rat liver microsomes, Table 2, read-out: Antioxidative capacity (t-BuOOH-LP) IC50): 80 nM
- Inhibition of aromatization (3H-17β-estradiol formation from 3H-androstenedione) (aromatase): no inhibitory effects
SMILES: COc1cc(CC2C(=O)OCC2C(O)c2ccc(O)c(OC)c2)ccc1O (stereo not shown) [HMR, hydroxymatairesinol]
- Changes in testosterone or LH concentrations [2, 4]: no significant changes
- Changes in the weights of accessory sex glands and testis [2, 4]: no significant changes
- Body weight ([2]; hypoandrogenemic (neonatally estrogenized) male rats): 455 ± 36 g
- Coaculating gland relative weight ([2]; hypoandrogenemic male rats): 70 ± 30 mg/kg body weight
- Seminal vesicle relative weight ([2]; hypoandrogenemic male rats): 266 ± 49 mg/kg body weight
- Testis relative weight ([2]; hypoandrogenemic male rats): 3276 ± 327 mg/kg body weight
- Ventral Prostate relative weight ([2]; hypoandrogenemic male rats): 378 ± 198 mg/kg body weight
- Pituitary LH (μg/pit) ([2]; hypoandrogenic male rats): 7.530 ± 2.286 μg/pit
- Serum LH ([2]; hypoandrogenic male rats): 0.854 ± 0.333 ng/mL
- Serum testosterone ([2]; hypoandrogenic male rats): 0.939 ± 0.431 ng/mL
- Testis testosterone (ng/testis) ([2]; hypoandrogenic male rats): 48.0 ± 15.2 ng/testis
- Pituitary LH (μg/pit) ([2]; intact male rats): 6.838 ± 2.061 μg/pit
- Serum LH ([2]; intact male rats): 1.088 ± 0.352 ng/mL
- Serum testosterone ([2]; intact male rats): 2.770 ± 1.421 ng/mL
- Testis testosterone (ng/testis) ([2]; intact male rats): 112.9 ± 58.5 ng/testis
- Body weight ([2]; intact male rats): 447 ± 38 g
- Coaculating gland relative weight ([2]; intact male rats): 204 ± 48 mg/kg body weight
- Seminal vesicle relative weight ([2]; intact male rats): 419 ± 59 mg/kg body weight
- Testis relative weight ([2]; intact male rats): 4223 ± 304 mg/kg body weight
- Ventral Prostate relative weight ([2]; intact male rats): 938 ± 148 mg/kg body weight
- Dose-dependency of antitumor action ([3]; HMR 3.0 versus 15.0 mg/kg): no clear dose-dependency
- Antitumor effect (growing versus stable, regressing and disappeared tumors) ([3]; female Sprague-Dawley rats, HMR 3.0 and 15.0 mg/kg per os daily for 7.5 weeks, FIG. 4): statistically very significant
